Laboratory results as given in article PMC6437697 (Journal of Medicinal Chemistry, 2019).

Experiments:
Experiment in all cases: KINOMEscan
Assay type in all cases: binding
Conditions in all cases: read-out: % control activity remaining
[1] = target: T1, EGFR (Homo sapiens, UniProt P00533)
T1 construct: purchased Eurofins DiscoverX KINOMEscan

[2] = target: T2, MAK (Homo sapiens, UniProt P20794)
T2 construct: purchased Eurofins DiscoverX KINOMEscan
T2 sequence (P20794 1-623): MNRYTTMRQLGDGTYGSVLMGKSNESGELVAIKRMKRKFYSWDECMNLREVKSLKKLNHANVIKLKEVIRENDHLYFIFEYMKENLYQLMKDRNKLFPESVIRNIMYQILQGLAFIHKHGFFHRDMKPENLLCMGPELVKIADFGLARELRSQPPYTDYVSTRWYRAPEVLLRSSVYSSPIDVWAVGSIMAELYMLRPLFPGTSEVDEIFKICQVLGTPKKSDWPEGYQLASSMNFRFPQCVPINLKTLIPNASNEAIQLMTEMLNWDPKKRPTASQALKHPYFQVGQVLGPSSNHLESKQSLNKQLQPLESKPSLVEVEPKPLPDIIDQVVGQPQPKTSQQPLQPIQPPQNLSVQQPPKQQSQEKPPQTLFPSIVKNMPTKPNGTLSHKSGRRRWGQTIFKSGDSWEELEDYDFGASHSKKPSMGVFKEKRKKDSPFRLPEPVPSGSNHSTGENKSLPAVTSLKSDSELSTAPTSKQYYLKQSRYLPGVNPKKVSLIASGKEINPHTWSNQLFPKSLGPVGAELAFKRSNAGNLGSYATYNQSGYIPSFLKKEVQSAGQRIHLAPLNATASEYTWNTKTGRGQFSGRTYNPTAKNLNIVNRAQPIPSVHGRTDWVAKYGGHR

[3] = target: T3, HIPK4 (Homo sapiens, UniProt Q8NE63)
T3 construct: purchased Eurofins DiscoverX KINOMEscan
T3 sequence (Q8NE63 1-616): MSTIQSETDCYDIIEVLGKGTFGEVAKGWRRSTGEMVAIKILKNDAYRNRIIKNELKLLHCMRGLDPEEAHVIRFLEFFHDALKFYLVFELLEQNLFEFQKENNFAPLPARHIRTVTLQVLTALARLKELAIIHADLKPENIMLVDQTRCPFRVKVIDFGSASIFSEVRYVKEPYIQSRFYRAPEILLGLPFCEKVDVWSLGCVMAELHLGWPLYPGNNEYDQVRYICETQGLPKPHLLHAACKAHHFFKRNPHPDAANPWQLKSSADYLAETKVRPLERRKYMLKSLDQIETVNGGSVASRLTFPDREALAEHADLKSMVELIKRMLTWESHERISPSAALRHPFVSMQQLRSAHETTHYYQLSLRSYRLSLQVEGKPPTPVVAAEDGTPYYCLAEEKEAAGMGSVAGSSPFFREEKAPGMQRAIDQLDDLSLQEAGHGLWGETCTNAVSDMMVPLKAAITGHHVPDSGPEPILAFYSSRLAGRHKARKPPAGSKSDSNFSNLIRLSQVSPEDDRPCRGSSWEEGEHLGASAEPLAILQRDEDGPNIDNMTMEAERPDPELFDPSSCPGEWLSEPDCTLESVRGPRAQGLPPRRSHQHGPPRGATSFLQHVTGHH

[4] = target: T4, KIT(V559D) (Homo sapiens, UniProt P10721, V559D)
T4 construct: purchased Eurofins DiscoverX KINOMEscan
T4 sequence (P10721 26-976 V559D): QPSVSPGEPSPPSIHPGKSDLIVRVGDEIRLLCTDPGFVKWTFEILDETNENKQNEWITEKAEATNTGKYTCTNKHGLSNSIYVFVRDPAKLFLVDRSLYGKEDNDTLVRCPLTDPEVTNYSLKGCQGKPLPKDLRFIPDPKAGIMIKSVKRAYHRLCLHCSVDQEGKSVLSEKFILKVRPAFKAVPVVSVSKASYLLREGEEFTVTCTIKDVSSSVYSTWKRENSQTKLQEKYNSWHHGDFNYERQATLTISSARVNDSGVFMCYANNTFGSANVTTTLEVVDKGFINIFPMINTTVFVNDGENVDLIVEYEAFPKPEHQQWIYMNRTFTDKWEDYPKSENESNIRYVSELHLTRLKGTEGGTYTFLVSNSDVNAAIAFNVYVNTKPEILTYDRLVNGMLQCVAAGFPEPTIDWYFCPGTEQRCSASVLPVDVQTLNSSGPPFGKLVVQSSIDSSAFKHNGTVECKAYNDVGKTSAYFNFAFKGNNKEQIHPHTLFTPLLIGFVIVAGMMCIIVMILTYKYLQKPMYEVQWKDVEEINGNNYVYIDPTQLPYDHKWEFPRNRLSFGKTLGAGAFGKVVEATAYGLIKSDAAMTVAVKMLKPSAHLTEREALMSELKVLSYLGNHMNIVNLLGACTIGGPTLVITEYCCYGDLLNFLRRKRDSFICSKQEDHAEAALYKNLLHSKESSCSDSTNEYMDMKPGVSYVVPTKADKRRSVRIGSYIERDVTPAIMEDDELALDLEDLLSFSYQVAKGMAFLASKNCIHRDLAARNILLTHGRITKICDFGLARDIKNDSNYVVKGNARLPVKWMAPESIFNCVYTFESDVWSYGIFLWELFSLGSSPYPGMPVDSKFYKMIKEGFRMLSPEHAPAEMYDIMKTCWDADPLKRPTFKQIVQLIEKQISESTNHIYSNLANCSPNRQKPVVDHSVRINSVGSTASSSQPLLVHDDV

[5] = target: T5, ERBB2 (Homo sapiens, UniProt P04626)
T5 construct: purchased Eurofins DiscoverX KINOMEscan
T5 sequence (P04626 23-1255 limits assumed): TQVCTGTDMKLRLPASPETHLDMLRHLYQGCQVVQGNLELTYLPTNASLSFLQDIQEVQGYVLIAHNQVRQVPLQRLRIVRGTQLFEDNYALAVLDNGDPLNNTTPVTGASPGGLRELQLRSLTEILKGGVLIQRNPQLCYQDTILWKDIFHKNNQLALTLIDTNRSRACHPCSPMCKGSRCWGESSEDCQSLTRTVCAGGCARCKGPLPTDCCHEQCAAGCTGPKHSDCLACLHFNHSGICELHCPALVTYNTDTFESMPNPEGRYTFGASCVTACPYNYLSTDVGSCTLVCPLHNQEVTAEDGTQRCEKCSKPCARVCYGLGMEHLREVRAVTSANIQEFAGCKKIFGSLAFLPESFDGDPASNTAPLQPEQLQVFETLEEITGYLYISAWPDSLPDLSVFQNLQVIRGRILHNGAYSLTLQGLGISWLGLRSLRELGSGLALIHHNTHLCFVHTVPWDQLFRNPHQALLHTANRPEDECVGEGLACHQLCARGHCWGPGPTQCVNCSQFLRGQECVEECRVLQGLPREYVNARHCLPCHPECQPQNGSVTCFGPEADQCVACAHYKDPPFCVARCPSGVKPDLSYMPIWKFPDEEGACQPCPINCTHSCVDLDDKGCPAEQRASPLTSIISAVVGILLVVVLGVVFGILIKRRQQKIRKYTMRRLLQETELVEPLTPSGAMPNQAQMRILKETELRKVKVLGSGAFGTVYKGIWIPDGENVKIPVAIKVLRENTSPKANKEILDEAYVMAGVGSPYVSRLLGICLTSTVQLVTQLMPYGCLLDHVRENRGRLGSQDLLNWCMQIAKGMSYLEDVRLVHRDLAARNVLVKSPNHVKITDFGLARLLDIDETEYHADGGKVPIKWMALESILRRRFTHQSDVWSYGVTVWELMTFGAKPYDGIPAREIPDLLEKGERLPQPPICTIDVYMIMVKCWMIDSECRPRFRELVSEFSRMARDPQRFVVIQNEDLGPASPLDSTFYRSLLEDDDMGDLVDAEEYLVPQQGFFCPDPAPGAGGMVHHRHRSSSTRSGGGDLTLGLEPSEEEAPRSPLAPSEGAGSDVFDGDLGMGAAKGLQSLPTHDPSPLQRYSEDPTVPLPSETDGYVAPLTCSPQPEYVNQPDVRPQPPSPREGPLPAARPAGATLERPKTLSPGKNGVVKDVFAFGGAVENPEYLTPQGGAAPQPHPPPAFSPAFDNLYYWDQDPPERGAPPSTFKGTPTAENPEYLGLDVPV

[6] = target: T6, MARK1 (Homo sapiens, UniProt Q9P0L2)
T6 construct: purchased Eurofins DiscoverX KINOMEscan

[7] = target: T7, PIK3CA(I800L) (Homo sapiens, UniProt P42336, I800L)
T7 construct: purchased Eurofins DiscoverX KINOMEscan
T7 sequence (P42336 whole entry I800L): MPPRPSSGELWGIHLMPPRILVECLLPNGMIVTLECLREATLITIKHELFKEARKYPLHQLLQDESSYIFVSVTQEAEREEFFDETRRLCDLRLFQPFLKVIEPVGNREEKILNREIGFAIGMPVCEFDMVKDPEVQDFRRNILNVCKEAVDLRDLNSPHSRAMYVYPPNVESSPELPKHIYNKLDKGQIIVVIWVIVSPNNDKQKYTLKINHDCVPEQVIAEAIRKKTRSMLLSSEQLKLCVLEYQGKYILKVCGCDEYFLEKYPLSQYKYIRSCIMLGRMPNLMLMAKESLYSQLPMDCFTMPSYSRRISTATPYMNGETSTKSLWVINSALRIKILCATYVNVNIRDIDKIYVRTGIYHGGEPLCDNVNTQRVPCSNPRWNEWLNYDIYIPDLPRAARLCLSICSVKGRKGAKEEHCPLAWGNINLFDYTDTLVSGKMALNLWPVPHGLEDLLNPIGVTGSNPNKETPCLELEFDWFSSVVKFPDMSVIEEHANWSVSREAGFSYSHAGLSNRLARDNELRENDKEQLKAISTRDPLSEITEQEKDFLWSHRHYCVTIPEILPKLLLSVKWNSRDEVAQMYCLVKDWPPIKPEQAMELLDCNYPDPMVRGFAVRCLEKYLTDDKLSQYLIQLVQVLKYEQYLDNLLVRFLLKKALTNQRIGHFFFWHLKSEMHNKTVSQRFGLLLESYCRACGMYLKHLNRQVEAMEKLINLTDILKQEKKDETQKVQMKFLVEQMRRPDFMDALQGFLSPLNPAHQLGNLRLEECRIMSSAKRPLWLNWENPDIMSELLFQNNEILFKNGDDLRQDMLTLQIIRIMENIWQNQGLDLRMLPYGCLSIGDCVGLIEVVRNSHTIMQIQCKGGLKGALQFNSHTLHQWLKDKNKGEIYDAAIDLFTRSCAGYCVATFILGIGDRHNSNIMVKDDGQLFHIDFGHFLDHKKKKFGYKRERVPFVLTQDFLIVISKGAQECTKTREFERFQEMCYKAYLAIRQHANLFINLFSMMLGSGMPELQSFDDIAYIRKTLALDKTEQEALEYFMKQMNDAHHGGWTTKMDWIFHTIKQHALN

[8] = target: T8, BRSK2 (Homo sapiens, UniProt Q8IWQ3)
T8 construct: purchased Eurofins DiscoverX KINOMEscan
T8 sequence (Q8IWQ3 1-736): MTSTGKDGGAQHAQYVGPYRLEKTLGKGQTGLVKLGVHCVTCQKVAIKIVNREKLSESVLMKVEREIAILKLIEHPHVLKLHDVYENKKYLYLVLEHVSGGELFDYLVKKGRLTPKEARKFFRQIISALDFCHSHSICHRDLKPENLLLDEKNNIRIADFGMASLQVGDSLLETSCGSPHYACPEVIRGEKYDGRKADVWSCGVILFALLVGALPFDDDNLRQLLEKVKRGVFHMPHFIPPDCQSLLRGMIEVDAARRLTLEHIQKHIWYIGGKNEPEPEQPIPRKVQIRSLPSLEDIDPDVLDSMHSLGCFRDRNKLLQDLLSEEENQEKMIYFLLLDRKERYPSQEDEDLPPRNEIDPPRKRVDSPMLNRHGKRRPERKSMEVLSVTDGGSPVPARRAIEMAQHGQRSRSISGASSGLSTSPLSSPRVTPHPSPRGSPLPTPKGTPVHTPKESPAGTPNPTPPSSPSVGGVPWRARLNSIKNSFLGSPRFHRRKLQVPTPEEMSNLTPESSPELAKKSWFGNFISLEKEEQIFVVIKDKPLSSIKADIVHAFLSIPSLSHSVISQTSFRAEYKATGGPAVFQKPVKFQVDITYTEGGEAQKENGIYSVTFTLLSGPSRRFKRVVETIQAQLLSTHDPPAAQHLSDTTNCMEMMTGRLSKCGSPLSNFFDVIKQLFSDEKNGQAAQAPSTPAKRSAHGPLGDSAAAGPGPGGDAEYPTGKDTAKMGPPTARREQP

[9] = target: T9, WNK1 (Homo sapiens, UniProt Q9H4A3)
T9 construct: purchased Eurofins DiscoverX KINOMEscan

T1 sequence (P00533 25-1210 limits assumed): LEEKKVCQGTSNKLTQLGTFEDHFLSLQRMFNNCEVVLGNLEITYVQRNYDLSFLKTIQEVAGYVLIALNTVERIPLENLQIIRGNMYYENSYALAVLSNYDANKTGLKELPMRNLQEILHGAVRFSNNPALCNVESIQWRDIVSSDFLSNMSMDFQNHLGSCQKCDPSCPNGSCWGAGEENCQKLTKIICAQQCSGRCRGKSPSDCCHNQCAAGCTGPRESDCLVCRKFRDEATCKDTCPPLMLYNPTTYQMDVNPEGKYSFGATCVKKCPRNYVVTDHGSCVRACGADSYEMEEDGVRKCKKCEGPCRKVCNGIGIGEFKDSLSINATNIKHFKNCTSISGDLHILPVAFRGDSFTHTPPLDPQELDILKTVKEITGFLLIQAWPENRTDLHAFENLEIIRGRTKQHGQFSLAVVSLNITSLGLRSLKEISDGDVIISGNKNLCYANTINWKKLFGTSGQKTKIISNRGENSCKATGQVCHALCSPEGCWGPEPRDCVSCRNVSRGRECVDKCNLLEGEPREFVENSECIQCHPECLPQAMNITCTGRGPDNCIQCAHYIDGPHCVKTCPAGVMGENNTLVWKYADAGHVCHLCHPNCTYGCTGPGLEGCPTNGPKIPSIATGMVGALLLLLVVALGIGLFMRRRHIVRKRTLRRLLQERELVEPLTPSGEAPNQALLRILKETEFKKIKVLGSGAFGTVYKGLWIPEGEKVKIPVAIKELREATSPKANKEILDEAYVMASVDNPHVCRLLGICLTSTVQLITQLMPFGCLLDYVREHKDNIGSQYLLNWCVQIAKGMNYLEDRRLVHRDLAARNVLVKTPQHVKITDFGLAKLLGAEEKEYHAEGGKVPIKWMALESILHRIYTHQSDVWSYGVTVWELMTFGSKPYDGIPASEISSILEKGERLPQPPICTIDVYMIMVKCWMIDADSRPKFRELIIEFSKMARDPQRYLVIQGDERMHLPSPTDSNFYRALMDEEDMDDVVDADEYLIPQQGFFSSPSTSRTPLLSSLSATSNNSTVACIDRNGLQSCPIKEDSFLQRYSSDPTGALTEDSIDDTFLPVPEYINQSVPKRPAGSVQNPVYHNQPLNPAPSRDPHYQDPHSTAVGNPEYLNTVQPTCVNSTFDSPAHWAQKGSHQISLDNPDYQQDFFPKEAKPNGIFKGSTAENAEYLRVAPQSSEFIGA

| SMILES | remaining binding at 1 µM [1] | remaining binding at 1 µM [2] | remaining binding at 1 µM [3] | remaining binding at 1 µM [4] | remaining binding at 1 µM [5] | remaining binding at 1 µM [6] | remaining binding at 1 µM [7] | remaining binding at 1 µM [8] | remaining binding at 1 µM [9] |
| --- | --- | --- | --- | --- | --- | --- | --- | --- | --- |
| Clc1cc(NCC2CC2)c2ncc(-c3ccc4[nH]ncc4c3)n2n1 [compound 2, 6-Chloro-N-(cyclopropylmethyl)-3-(1H-indazol-5-yl)imidazo[1,2-b]pyridazin-8-amine] | 71% | 82% | 8.6% | 0.45% | 100% | 86% | 83% | 100% | 89% |
| O=C(CN1CCOCC1)N[C@H]1CC[C@H](Nc2cc(Cl)nn3c(-c4ccc5[nH]ncc5c4)cnc23)CC1 [compound 26] | 80% | 61% | 5.1% | 0.05% | 97% | 94% | 88% | 98% | 100% |
| CN1CCC(CNc2cc(Cl)nn3c(-c4cc5nc(Nc6ccccc6)[nH]c5cc4F)cnc23)CC1 [compound 31, 6-Chloro-3-(6-fluoro-2-(phenylamino)-1H-benzo[d]imidazol-5-yl)-N-((1-methylpiperidin-4-yl)methyl)imidazo[1,2-b]pyridazin-8-amine] | 100% | 69% | 71% | 67% | 84% | 94% | 58% | 84% | 76% |
